Laboratory results from US20240262795A1, “PYRAZINE COMPOUNDS AS INHIBITORS OF FLT3” (Biomea Fusion, Inc., priority 2021, published 2024).
Substitutions are numbered along the chain they refer to.

Legend:
[1] = target: T1, Ba/F3 cell lines stably expressing human FLT3-ITD-F691L (Homo sapiens, UniProt P36888, F691L, cells depend on it, form not given); assay: FLT3 mutant assay, cell viability, Ba/F3-FLT3-ITD-F691L; type: cell-based, mouse; details: IC50 (3 days), CellTiter-Glo; read-out: Ba/F3-FLT3-ITD-F691L Relative IC50
T1 construct: Ba/F3-FLT3-ITD-F691L Relative IC50
T1 sequence (P36888 1-993 F691L): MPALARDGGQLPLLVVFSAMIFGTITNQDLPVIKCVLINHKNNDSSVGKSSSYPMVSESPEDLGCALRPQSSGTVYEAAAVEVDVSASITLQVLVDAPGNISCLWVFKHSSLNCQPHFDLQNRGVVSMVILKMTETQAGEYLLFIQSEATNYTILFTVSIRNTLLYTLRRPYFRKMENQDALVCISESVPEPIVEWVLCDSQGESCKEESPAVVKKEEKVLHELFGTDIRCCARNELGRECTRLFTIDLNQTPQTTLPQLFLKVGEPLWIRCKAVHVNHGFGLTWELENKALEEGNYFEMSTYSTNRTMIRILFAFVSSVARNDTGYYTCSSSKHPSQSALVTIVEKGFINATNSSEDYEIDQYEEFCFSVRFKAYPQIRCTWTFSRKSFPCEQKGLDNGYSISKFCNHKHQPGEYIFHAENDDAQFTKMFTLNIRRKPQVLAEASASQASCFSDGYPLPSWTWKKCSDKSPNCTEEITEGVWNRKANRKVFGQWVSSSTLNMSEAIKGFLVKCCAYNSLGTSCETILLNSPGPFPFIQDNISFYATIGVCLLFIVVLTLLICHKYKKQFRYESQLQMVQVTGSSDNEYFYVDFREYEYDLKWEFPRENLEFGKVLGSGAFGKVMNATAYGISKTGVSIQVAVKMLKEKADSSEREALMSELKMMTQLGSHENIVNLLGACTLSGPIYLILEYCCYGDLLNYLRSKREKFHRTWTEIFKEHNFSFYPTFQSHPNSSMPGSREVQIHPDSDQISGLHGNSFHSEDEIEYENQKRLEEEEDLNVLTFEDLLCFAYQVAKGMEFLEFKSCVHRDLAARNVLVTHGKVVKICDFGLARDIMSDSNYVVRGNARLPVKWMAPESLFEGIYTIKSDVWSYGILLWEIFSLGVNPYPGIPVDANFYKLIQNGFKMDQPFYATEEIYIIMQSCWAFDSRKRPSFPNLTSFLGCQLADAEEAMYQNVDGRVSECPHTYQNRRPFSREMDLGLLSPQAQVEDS
Method: (§1) Activity of compounds on FLT3 activating mutations were assessed using Ba/F3 cell lines (mouse pro-B cell line) stably expressing human FLT3-ITD, FLT3-ITD-D835Y or FLT3-ITD-F691L. […] The supernatant collected were concentrated with PEG8000 and used to infect Ba/F3 cells at 1-5 MOI in serum-free media with polybrene. Infected Ba/F3 cells were selected in presence of puromycin, and surviving cells verified by sequencing and/or protein detection assay. Constitutive expression of the activating kinase transforms the Ba/F3 cells into IL-3-independent growth allowing them to be cultured in the absence of IL-3. […] For use in compound testing, cells in exponential growth phase were harvested, counted, and resuspended at the required cell density. Cell viability assays were performed in 96-well assay plates and 90 μL of cell suspension seeded per well. Serial dilutions of the test compounds and assay controls and were freshly prepared for the assay. Nine-point 3× serial dilutions were prepared in 100% DMSO (400× stock) and subsequently diluted in cell culture media to obtain 10× stocks. Ten microliters of the 10× stock serial dilutions were added to the appropriate wells (triplicate wells per condition) in the assay plate. […] Assay plates were incubated for 3 days in at 37° C. in a humidified incubator with 5% CO2.
(§2) Inhibition rate (IR) of the tested compounds was determined by the following formula: IR (%)=(1−(RLU compound−RLU blank)/(RLU control−RLU blank))*100%. The inhibitions of different dose of compound were calculated in Excel file, and the dose responses were analysed using GraphPad Prism to evaluate related parameters, such as Bottom, Top and IC50. For the IC50 analysis by GraphPad Prism, the equation below was used to fit curve: Y=Bottom+(Top−Bottom)/(1+10^((LogIC50−X)*HillSlope))

[2] = target: T2, Ba/F3 cell lines stably expressing human FLT3-ITD (Homo sapiens, UniProt P36888, cells depend on it, form not given); assay: FLT3 mutant assay, cell viability, Ba/F3-FLT3-ITD; type: cell-based, mouse; details: IC50 (3 days), CellTiter-Glo; read-out: Ba/F3-FLT3-ITD Relative IC50
T2 sequence (P36888 1-993): T1 sequence (P36888 1-993 F691L) with L691F
Method: as §1, §2

In the case of `CCc1nc(C(N)=O)c(Nc2cccc([C@@H](C)CNC(=O)CN(C)C(=O)/C=C/CN3CCC3)c2)nc1N(C)CC` [Compound 518, (R,E)-3-((3-(1-(2-(4-(azetidin-1-yl)-N-methylbut-2-enamido)acetamido)propan-2-yl)phenyl)amino)-6-ethyl-5-(ethyl(methyl)amino)pyrazine-2-carboxamide], the GI50 [1] is reported as 1 to 10 nM and the GI50 [2] is reported as 1 to 10 nM.

For `CCc1nc(C(N)=O)c(Nc2cccc(CCNC(=O)[C@H](C)N(C)C(=O)/C=C/CN(C)C)c2)nc1NC(C)C` [Compound 205, (S,E)-3-((3-(2-(2-(4-(dimethylamino)-N-methylbut-2-enamido)propanamido)ethyl)phenyl)amino)-6-ethyl-5-(isopropylamino)pyrazine-2-carboxamide], the GI50 [1] was 1 to 10 nM and the GI50 [2] was < 1 nM.

In the case of `CCc1nc(C(N)=O)c(Nc2cccc(CCNC(=O)CN(C)C(=O)/C=C/CN3CCC3)c2)nc1OC(C)C` [Compound 603, (E)-3-((3-(2-(2-(4-(azetidin-1-yl)-N-methylbut-2-enamido)acetamido)ethyl)phenyl)amino)-6-ethyl-5-isopropoxypyrazine-2-carboxamide], the GI50 [1] is reported as 10 to 100 nM and the GI50 [2] is reported as 1 to 10 nM.

For `Cc1nc(C(N)=O)c(Nc2cccc(CCNC(=O)CN(C)C(=O)/C=C/CN(C)C)c2)nc1N(C)C(C)C` [Compound 250, (E)-3-((3-(2-(2-(4-(dimethylamino)-N-methylbut-2-enamido)acetamido)ethyl)phenyl)amino)-5-(isopropyl(methyl)amino)-6-methylpyrazine-2-carboxamide], the GI50 [1] was 1 to 10 nM and the GI50 [2] was 1 to 10 nM.
